Data reported in ChEMBL document CHEMBL1145324, “Design, synthesis, and biochemical evaluation of novel cruzain inhibitors with potential application in the treatment of Chagas' disease” (Bioorg Med Chem Lett, 2006).

Target: Cruzipain (Trypanosoma cruzi, UniProt P25779)
Assay: Inhibition of Trypanosoma cruzi recombinant cruzain

Cruzipain, sequence (P25779 whole entry): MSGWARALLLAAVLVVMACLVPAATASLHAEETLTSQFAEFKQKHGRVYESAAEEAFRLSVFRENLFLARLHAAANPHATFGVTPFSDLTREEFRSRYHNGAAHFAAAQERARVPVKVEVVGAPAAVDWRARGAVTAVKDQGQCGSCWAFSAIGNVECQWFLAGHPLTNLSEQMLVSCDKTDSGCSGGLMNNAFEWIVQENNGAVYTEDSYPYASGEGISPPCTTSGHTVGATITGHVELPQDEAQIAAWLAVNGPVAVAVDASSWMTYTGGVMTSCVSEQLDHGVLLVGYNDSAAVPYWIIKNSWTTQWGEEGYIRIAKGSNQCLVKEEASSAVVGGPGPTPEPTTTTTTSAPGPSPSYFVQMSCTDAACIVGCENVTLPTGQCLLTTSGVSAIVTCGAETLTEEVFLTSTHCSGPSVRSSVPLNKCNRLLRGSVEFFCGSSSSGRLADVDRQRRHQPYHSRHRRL

SMILES | IC50 [µM]
CC/C(=N\NC(N)=S)c1cccc(O)c1 | > 33
NC(=S)N/N=C1/CCC(c2ccc(Br)cc2)C1 (configuration not stated) | > 5
NC(=S)N/N=C1\CCOc2ccc(Br)cc21 | 0.11
C=CC(=O)C1=CCCc2ccc(Br)cc21 | 0.8
NC(=S)N/N=C1/CCCC(c2ccc(Br)cc2)C1 (configuration not stated) | > 7

More lines, now with the values ahead:

IC50 [µM] | SMILES
> 17 | NC(=S)N/N=C1\CCc2ccccc21
> 20 | C/C(=N/NC(N)=S)C1=CCCc2ccccc21
> 3.64 | CC/C(=N\NC(N)=S)c1cccc(N)c1
> 16 | NC(=S)N/N=C1\CCc2ccccc2O1
1.36 | CC(=O)C1=CCCc2ccccc21
> 20 | NC(=S)N/N=C1\CCS(=O)(=O)c2ccccc21
> 17 | NC(=S)N/N=C1\CCOc2ccccc21
